Test system: high-affinity IgE receptor (FcεRI)
Test: FcεRI expression amount on the cell surface of KU812 cells by flow cytometry
Type: cell-based, human
Details: 24 hours
Experimental: By using antihuman FcRI antibody (CRA1), the FcεRI expression amount on the surface of human basophil-like cell line KU812 cells was analyzed by flow cytometry. Cells having been incubated by adding DMSO alone were compared with cells having been incubated by adding chrysin. The ratio of overexpression of FcεRI is indicated in percentage. As a basal medium for incubating cells, use was made of RPMI 1640 (Nissui, Japan), to which 100 U/mL of penicillin (Meiji Pharmaceutical Company, Tokyo, Japan), […] of streptomycin (Meiji Pharmaceutical Company, Tokyo, Japan), 12.5 mM of MaHCO3 (Wako Pure Chemical Industries, Osaka, Japan) and 10 mM of HEPES Wako Pure Chemical Industries) had been added. Fetal bovine serum (FBS) purchased form Bio Source International was added to the basal medium to give a concentration of 5 to 10%. Human basophil-like cell line KU812 employed in this experiment was assigned by Japan Collection of Research Bioresources (JCRB) and subcultured and maintained in RPMI 1640 medium comprising 5 to 10% of FBS at 37° C. in 5% CO2 gas under humidification. KU812 cells were incubated in RPMI 1640 medium, to which chrysin dissolved in DMSO had been added, for 0 to 24 hours. A system wherein the cells were incubated in the medium comprising DMSO alone was used as a control. After incubating, the cells were collected and incubated in 5% FBS-PBS, to which 10 μg/mL of antihuman FcεRI α chain mouse monoclonal antibody CRA-1 (Kyokuto Pharmaceutical) had been added, at 4° C. for 40 to 60 min. As a negative control, 10 μg/mL of mouse control IgG2b antibody (DAKO) was used. Then, the cells were washed with ice-cooled PBS once and incubated in 5% FBS-PBS, to which 10 μg/mL of antimouse IgG2b FITC-labeled antibody (Protos Immunoresearch) had been added, at 4° C. for 40 to 60 min. After incubating, the cells were washed with PBS and then resuspended in PBS. The cell suspension thus obtained was analyzed by flow cytometry. In the flow cytometry analysis, FACS Calibur (Becton Sickinson, Sunnyvale, Calif.) was employed. The secondary antibody reaction and the subsequent procedures were conducted in the dark and the cells were preserved on ice while conducting the analysis. KU812 cells (5×10^5 cells/mL) was incubated in 5% bovine fetal serum comprising RPMI 1640 medium, to which chrysin (0, 1, 5 and 10 μM) and apigenin (purchased from Aldrich Chem. Co., St. Louis, Mo.; 0, 1, 5 and 10 μM) had been added, for 24 hours. After incubating, the FcεRI expression level on the cell surface was measured by flow cytometry (experimental procedure: see [0047]).

O=c1cc(-c2ccc(O)cc2)oc2cc(O)cc(O)c12 [Apigenin]
FcεRI expression suppressive rate (%) (single agent 1 μM): 5.0% | FcεRI expression suppressive rate (%) (single agent 5 μM): 17.1% | FcεRI expression suppressive rate (%) (single agent 10 μM): 36.1%

— patent publication US20080262080A1, “Allergy Suppressive Agent” (KYUSHU UNIVERSITY, NATIONAL UNIVERSITY CORPORATION, priority 2004, published 2008)
